Where “and” joins values, the source holds several entries; their conditions need not be identical. Equal entries are not always repeated. Calls of active or inactive are those of the source. The rule behind the calls is not given here.
Molecular target: Ubiquitin-conjugating enzyme E2 N (Homo sapiens) (UniProt P61088)
Test: inhibition of Ubc13-driven ubiquitin chain assembly – biochemical, TR-FRET, Uev1a, selectivity assay, SAR follow-up (AID 2658)
Settings: Ubc13/Uev1a polyubiquitination, in vitro

Chain of Ubiquitin-conjugating enzyme E2 N (Homo sapiens) (P61088 whole entry, looked up): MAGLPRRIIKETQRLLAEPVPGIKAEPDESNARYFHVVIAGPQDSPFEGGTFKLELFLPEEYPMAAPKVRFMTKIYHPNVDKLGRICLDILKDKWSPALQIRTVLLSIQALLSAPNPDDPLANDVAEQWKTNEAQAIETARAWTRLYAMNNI

IC50 | SMILES
> 100 µM (inactive) | COc1ccccc1CNC(=O)c1cc(-c2ccco2)nc2ccccc12
> 100 µM (inactive) | COc1ccc(CNC(=O)CCOC(=O)c2cc(-c3ccco3)nc3ccccc23)cc1
92.6 µM | COc1ccc(CCNC(=O)COC(=O)c2cc(-c3ccco3)nc3ccccc23)cc1OC
92.6 µM | O=C(COC(=O)c1cc(-c2ccco2)nc2ccccc12)NC(=O)c1ccccc1
> 100 µM (inactive) | COc1ccccc1CNC(=O)CNC(=O)c1cc(-c2ccco2)nc2ccccc12
> 100 µM (inactive) | O=C(Nc1ccccc1N1CCOCC1)c1cc(-c2ccco2)nc2ccccc12
93.1 µM | O=C(OCC(=O)N1CCN(C(=O)c2ccco2)CC1)c1cc(-c2ccco2)nc2ccccc12
> 100 µM (inactive) | CCNC(=O)COC(=O)c1cc(-c2ccco2)nc2ccccc12
> 100 µM (inactive) | O=C(COC(=O)c1cc(-c2ccco2)nc2ccccc12)NCc1ccccc1
> 100 µM (inactive) | COc1ccccc1CCNC(=O)COC(=O)c1cc(-c2ccco2)nc2ccccc12
> 100 µM (inactive) | O=C(COC(=O)c1cc(-c2ccco2)nc2ccccc12)NCc1ccccc1Cl
72.7 µM | O=C(COC(=O)c1cc(-c2ccco2)nc2ccccc12)NCc1ccc(F)cc1
83 µM | COc1ccc(CNC(=O)C(C)OC(=O)c2cc(-c3ccco3)nc3ccccc23)cc1 (centres undefined)
> 100 µM (inactive) | O=C(OCC(=O)N1CCc2ccccc2C1)c1cc(-c2ccco2)nc2ccccc12
> 100 µM (inactive) | COC(=O)c1ccc(CNC(=O)COC(=O)c2cc(-c3ccco3)nc3ccccc23)cc1
> 100 µM (inactive) | CCN(CC)C(=O)COC(=O)c1cc(-c2ccco2)nc2ccccc12
> 100 µM (inactive) | O=C(COC(=O)c1cc(-c2ccco2)nc2ccccc12)NCc1cccc(Cl)c1
34.6 µM | COc1ccc(CNC(=O)COC(=O)c2cc(-c3ccco3)nc3ccccc23)cc1
25.8 µM and 23.3 µM | O=C(N/N=C/c1cccc(F)c1)c1cc(-c2ccco2)nc2ccccc12
68.2 µM | COc1ccccc1COC(=O)COC(=O)c1cc(-c2ccco2)nc2ccccc12

IC50 | SMILES
82.5 µM | COc1ccccc1CNC(=O)COC(=O)c1cc(-c2cccs2)nc2ccccc12
65 µM | COc1ccc(CCNC(=O)c2cc(-c3ccco3)nc3ccccc23)cc1
53.4 µM | COc1ccc(NC(=O)c2cc(-c3ccco3)nc3ccccc23)cc1S(=O)(=O)N1CCOCC1
60.2 µM | COc1ccccc1CNC(=O)COC(=O)c1cc(-c2ccco2)nc2ccccc12
> 100 µM (inactive) | COc1ccc(CNC(=O)COC(=O)c2cc(-c3ccco3)nc3ccccc23)c(OC)c1
> 100 µM (inactive) | COc1ccc(CNC(=O)COC(=O)c2cc(-c3ccco3)nc3ccccc23)cc1OC
33.1 µM | COc1ccc(CNC(=O)COC(=O)c2cc(-c3cccs3)nc3ccccc23)cc1
> 100 µM (inactive) | Cc1ccc(S(=O)(=O)N(C)C)cc1NC(=O)c1cc(-c2ccco2)nc2ccccc12
58.9 µM | Cc1ccc(CNC(=O)COC(=O)c2cc(-c3ccco3)nc3ccccc23)cc1
72.5 µM | CC(NC(=O)COC(=O)c1cc(-c2ccco2)nc2ccccc12)c1ccc(F)cc1 (centres undefined)
86.6 µM | COc1ccc(CNC(=O)COC(=O)c2cc(-c3ccc(C)o3)nc3ccccc23)cc1
73.4 µM and 74.4 µM | O=C(COC(=O)c1cc(-c2ccco2)nc2ccccc12)NCc1ccc(Cl)cc1
> 100 µM (inactive) | CN(Cc1ccc(F)cc1)C(=O)COC(=O)c1cc(-c2ccco2)nc2ccccc12
> 100 µM (inactive) | O=C(NN=Cc1ccc(F)cc1)c1cc(-c2ccco2)nc2ccccc12
> 100 µM (inactive) | COc1ccc(CCNC(=O)COC(=O)c2cc(-c3ccco3)nc3ccccc23)cc1
> 100 µM (inactive) | COc1ccc(CNC(=O)c2cc(-c3ccco3)nc3ccccc23)cc1
47.2 µM | CN(C(=O)COC(=O)c1cc(-c2ccco2)nc2ccccc12)C1CCS(=O)(=O)C1 (centres undefined)
> 100 µM (inactive) | CCN(CC)CCNC(=O)c1cc(-c2ccco2)nc2ccccc12
> 100 µM (inactive) | COc1ccccc1CNC(=O)CCOC(=O)c1cc(-c2ccco2)nc2ccccc12

More lines, now with the values behind:

SMILES | IC50
O=C(O)c1ccc(C2Nc3ccc(F)cc3C3C=CCC32)cc1 (centres undefined) | > 100 µM (inactive)
CCCCn1c(NC(=O)c2ccccc2Cl)c(C#N)c2nc3ccccc3nc21 | > 100 µM (inactive)
CC(=NOCc1nc2ccccc2c(=O)n1N=Cc1cc(C)cc([N+](=O)[O-])c1O)c1ccccc1 | > 100 µM (inactive)
CCCCn1c(NS(=O)(=O)c2ccccc2)c(S(=O)(=O)c2ccc(C)cc2)c2nc3ccccc3nc21 | > 100 µM (inactive)
COc1ccc(-n2c(NC(=O)c3ccc(Br)o3)c(C#N)c3nc4ccccc4nc32)cc1 | > 100 µM (inactive)
Cc1ccc(C=Nc2ccccc2C(N)=O)s1 | > 100 µM (inactive)
O=C(O)c1ccc(NS(=O)(=O)c2ccc3c(c2)C2C=CCC2C(c2ccccc2F)N3)cc1 (centres undefined) | > 100 µM (inactive)
O=[N+]([O-])c1ccc2[nH]c(O)c(N=NC(=S)Nc3cccnc3)c2c1 | > 100 µM (inactive)
O=C1c2oc3ccccc3c(=O)c2C(c2ccc(O)cc2)N1c1nccs1 (centres undefined) | > 100 µM (inactive)
Cc1ccccc1NC(=O)Cn1c(O)c(N=NC(=O)c2ccccc2O)c2ccccc21 | 98 µM
O=C1c2oc3ccccc3c(=O)c2C(c2ccccc2)N1c1nccs1 (centres undefined) | > 100 µM (inactive)
O=S(=O)(Nc1ccccc1F)c1ccc2c(c1)C1C=CCC1C(c1ccc(F)cc1)N2 (centres undefined) | > 100 µM (inactive)
O=C(O)c1ccc2c(c1)C1C=CCC1C(c1ccc(F)cc1)N2 (centres undefined) | > 100 µM (inactive)
O=C(/C=C/c1cccs1)Nc1scc(-c2ccccc2)c1C(=O)O | 78.4 µM
Cc1cccc2c(N=Nc3ccc(S(=O)(=O)Nc4cccc(Cl)c4)cc3[N+](=O)[O-])c(O)[nH]c12 | > 100 µM (inactive)
Cc1ccsc1C=Nc1ccc(F)cc1 | > 100 µM (inactive)
Cc1ccsc1C=Nc1ccccc1O | > 100 µM (inactive)
CCOc1cc(C2c3c(oc4ccccc4c3=O)C(=O)N2c2nccs2)ccc1O (centres undefined) | > 100 µM (inactive)
CCN(CC)S(=O)(=O)c1ccc(O)c(NC(=O)c2cc(-c3cc(OC)c(OC)c(OC)c3)nc3ccccc23)c1 | > 100 µM (inactive)
Cc1ccc(O)c(N=Cc2ccc(C)s2)c1 | > 100 µM (inactive)
O=C(N=Nc1c(O)n(Cc2ccccc2)c2ccccc12)c1cc2ccccc2cc1O | > 100 µM (inactive)
C=CCC(Nc1ccccc1)C12C=CC(O1)C(C(=O)OC)=C2C(=O)OC (centres undefined) | > 100 µM (inactive)
Cc1ccsc1C=Nc1ccc(C(N)=O)cc1 | > 100 µM (inactive)
Cc1ccc(NC(=O)Cn2c(O)c(N=NC(=O)c3cc4ccccc4cc3O)c3ccccc32)cc1 | > 100 µM (inactive)
O=C(O)c1ccc2c(c1)C1C=CCC1C(c1ccccc1)N2 (centres undefined) | > 100 µM (inactive)
C/C(=N\OCc1nc2ccccc2c(=O)n1/N=C/c1cc(Br)ccc1O)c1ccccc1 | > 100 µM (inactive)
O=c1c2ccccc2nc(COc2ccccc2)n1N=Cc1cc([N+](=O)[O-])ccc1O | > 100 µM (inactive)
O=C(N=Nc1c(O)[nH]c2ccc([N+](=O)[O-])cc12)c1ccccc1Cl | > 100 µM (inactive)

SMILES | IC50
Cc1[nH][nH]c(=O)c1C(c1ccc(-c2cccc(C(=O)O)c2)o1)c1c(C)[nH][nH]c1=O | > 100 µM (inactive)
NS(=O)(=O)c1ccc2c(c1)C1C=CCC1C(c1ccc([N+](=O)[O-])cc1)N2 (centres undefined) | > 100 µM (inactive)
C/C(=N\OCc1nc2ccccc2c(=O)n1/N=C/c1ccc(Cl)cc1)c1ccccc1 | > 100 µM (inactive)
Cc1ccc(C2Nc3ccc(C(=O)O)cc3C3C=CCC32)cc1 (centres undefined) | > 100 µM (inactive)
S=c1[nH]nc(-c2cc(-c3ccccc3)n[nH]2)n1N=Cc1ccc(Br)s1 | > 100 µM (inactive)
N=C(N)c1ccc2cc(OC(=O)c3ccc(N=C(N)N)cc3)ccc2c1 | 14 µM
COc1cc(-c2n[nH]c(=S)n2/N=C/c2cccn2C)cc(OC)c1OC | > 100 µM (inactive)
Cc1ccc(N=Cc2sccc2C)cc1C | > 100 µM (inactive)
Clc1ccc2c(c1)C1C=CCC1C(c1ccccc1)N2 (centres undefined) | > 100 µM (inactive)
COc1ccc(C=NNc2cc(N3CCCC3)nc(N3CCCC3)n2)cc1 | 53.8 µM
Cc1ccsc1C=Nc1ccc(O)cc1 | > 100 µM (inactive)
COC(=O)c1ccc2c(c1)C1C=CCC1C(c1ccc(C(=O)O)cc1)N2 (centres undefined) | > 100 µM (inactive)
Nc1ccc2c(c1)C1C=CCC1C(c1ccccc1)N2 (centres undefined) | > 100 µM (inactive)
Cc1[nH][nH]c(=O)c1C(c1ccc(-c2ccc(C(=O)O)cc2)o1)c1c(C)[nH][nH]c1=O | > 100 µM (inactive)
S=c1[nH]nc(-c2cc(-c3ccccc3)n[nH]2)n1N=Cc1ccccc1 | > 100 µM (inactive)
Cc1cccc(Nc2cc3ccccc3c(=O)[nH]2)c1 | > 100 µM (inactive)
Cc1c(Cl)cccc1NS(=O)(=O)c1ccc2c(c1)C1C=CCC1C(c1ccc(C(=O)O)cc1)N2 (centres undefined) | > 100 µM (inactive)
C=CCn1c(NC(=O)c2ccccc2Cl)c(C#N)c2nc3ccccc3nc21 | > 100 µM (inactive)
COc1ccccc1NC(=O)Cn1c(O)c(N=NC(=O)c2ccccc2O)c2ccccc21 | > 100 µM (inactive)
CC(=NOCc1nc2ccccc2c(=O)n1N=Cc1cc([N+](=O)[O-])ccc1O)c1ccccc1 | > 100 µM (inactive)
COc1ccc2c(c1)C(NC(C)=O)C(=O)N2CCN1CCOCC1 (centres undefined) | 86.1 µM
S=c1[nH]nc(-c2cc(-c3ccccc3)n[nH]2)n1N=Cc1cccc(Cl)c1 | > 100 µM (inactive)
S=c1[nH]nc(-c2cc(-c3ccccc3)n[nH]2)n1N=Cc1c(Cl)cccc1Cl | > 100 µM (inactive)
COC(=O)c1cccc(-c2ccc(C(c3c(C)[nH][nH]c3=O)c3c(C)[nH][nH]c3=O)o2)c1 | > 100 µM (inactive)
C/C(=N\OCc1nc2ccccc2c(=O)n1/N=C/c1ccccc1O)c1ccccc1 | > 100 µM (inactive)
Cc1ccc(Nc2cc3ccccc3c(=O)[nH]2)cc1 | > 100 µM (inactive)
C=CCn1c(NS(=O)(=O)c2ccccc2)c(S(=O)(=O)c2ccc(C)cc2)c2nc3ccccc3nc21 | > 100 µM (inactive)
